From ChEMBL document CHEMBL1201862, “PubChem BioAssay data set” (2004)
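Dose response: 5 concentrations. Exposure: 48 h. Format: 96-well plates. Endpoint: linear interpolation; highest concentration if not reached. Abbreviation: GI50, concentration required for 50% inhibition of growth.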 Calls of active or inactive are those of the source. Cut-off read from the data, not from the text of the source: active = GI50 up to about 1.1 µM and inactive = higher.

Assays:
Test in all cases: DTP human tumour cell line panel, 48 h
[1] = tested on: HOP-62
[2] = tested on: KM12
[3] = tested on: SF-539
[4] = tested on: HCC 2998
[5] = tested on: IGROV-1
[6] = tested on: NCI/ADR-RES
[7] = tested on: MDA-MB-231
[8] = tested on: SF-268
[9] = tested on: UACC-257
[10] = tested on: MOLT-4
[11] = tested on: SW-620
[12] = tested on: 786-0
[13] = tested on: RPMI-8226
[14] = tested on: SK-MEL-5
[15] = tested on: UO-31
[16] = tested on: MDA-MB-435
[17] = tested on: DU-145
[18] = tested on: LOX IMVI
[19] = tested on: Malme-3M
[20] = tested on: A498

Compound | GI50 [1] | GI50 [2] | GI50 [3] | GI50 [4] | GI50 [5] | GI50 [6] | GI50 [7] | GI50 [8] | GI50 [9] | GI50 [10] | GI50 [11] | GI50 [12] | GI50 [13] | GI50 [14] | GI50 [15] | GI50 [16] | GI50 [17] | GI50 [18] | GI50 [19] | GI50 [20]
CNC1c2ccccc2C(=O)c2cc3c(cc21)OCCOCCOCCOCCO3 (stereo not drawn) | > 100 µM (inactive) | > 100 µM (inactive) | > 100 µM (inactive) | > 100 µM (inactive) | > 100 µM (inactive) | > 100 µM (inactive) | 82.2 µM (inactive) | > 100 µM (inactive) | > 100 µM (inactive) | 28.1 µM (inactive) | 81.3 µM (inactive) | > 100 µM (inactive) | 34.8 µM (inactive) | > 100 µM (inactive) | > 100 µM (inactive) | > 100 µM (inactive) |  |  |  | 
CC(=O)N/N=C1/CC[C@@]2(C)C(=CC[C@H]3C4CCC(C(C)CCCC(C)C)[C@@]4(C)CCC32)C1(C)C (stereo partly drawn) | > 100 µM (inactive) | 46.3 µM (inactive) |  |  | 57.4 µM (inactive) | 47.8 µM (inactive) |  | 63 µM (inactive) | 36.6 µM (inactive) | 11 µM (inactive) | 53.3 µM (inactive) | 43.7 µM (inactive) | > 100 µM (inactive) | 37.4 µM (inactive) | 82 µM (inactive) | 82 µM (inactive) | > 100 µM (inactive) | 3.94 µM (inactive) | > 100 µM (inactive) | 
Cc1ccc(C)c(NC(=O)C(=O)C(c2cnc3ccc([N+](=O)[O-])cc3n2)[N+](=O)[O-])c1 (stereo not drawn) | 20.9 µM (inactive) | 20.1 µM (inactive) | > 100 µM (inactive) | 55.8 µM (inactive) | 26.5 µM (inactive) | 25.8 µM (inactive) |  | > 100 µM (inactive) | 38.6 µM (inactive) | 25.9 µM (inactive) | 30 µM (inactive) | 52.8 µM (inactive) | 0.102 µM (active) | 48.3 µM (inactive) | 29.2 µM (inactive) | 46.2 µM (inactive) | 77.4 µM (inactive) |  | > 100 µM (inactive) | 33.2 µM (inactive)
CCOC(=O)CCC(C(=O)OCC)n1nc2ccc(Nc3c(C)[n+]([O-])c4cc(Cl)ccc4[n+]3[O-])cc2n1 (stereo not drawn) | > 100 µM (inactive) | > 100 µM (inactive) | > 100 µM (inactive) |  | > 100 µM (inactive) | > 100 µM (inactive) |  | 39.1 µM (inactive) | 94.4 µM (inactive) | 32.3 µM (inactive) | > 100 µM (inactive) | 83.9 µM (inactive) | 19.5 µM (inactive) | 75 µM (inactive) | 81.8 µM (inactive) | 69.7 µM (inactive) | > 100 µM (inactive) | 58.3 µM (inactive) | > 100 µM (inactive) | > 100 µM (inactive)
CC(C)=CCC/C(C)=C/COc1c2ccoc2cc2oc(=O)ccc12 [BERGAMOTTIN] | 43.4 µM (inactive) | 32.7 µM (inactive) | 37.2 µM (inactive) | 28.2 µM (inactive) | 39.5 µM (inactive) | 35 µM (inactive) | 24.4 µM (inactive) | 54.1 µM (inactive) | 24.7 µM (inactive) | 15.4 µM (inactive) | 37.8 µM (inactive) | 32.4 µM (inactive) | 17.1 µM (inactive) | 14.9 µM (inactive) | 21.5 µM (inactive) | 34.6 µM (inactive) |  | 21 µM (inactive) | 33.5 µM (inactive) | 23.1 µM (inactive)
O=c1[nH]c(=O)n(C2CC(O)C(CO)O2)cc1OCC1CCCCC1 (stereo not drawn) | > 100 µM (inactive) | > 100 µM (inactive) |  |  | > 100 µM (inactive) | > 100 µM (inactive) | > 100 µM (inactive) | > 100 µM (inactive) | > 100 µM (inactive) | > 100 µM (inactive) |  | > 100 µM (inactive) |  | > 100 µM (inactive) | > 100 µM (inactive) | > 100 µM (inactive) | > 100 µM (inactive) | > 100 µM (inactive) | > 100 µM (inactive) | 
O=C1CCCC2C(O)CCC[C@H]12 (stereo partly drawn) | > 100 µM (inactive) | > 100 µM (inactive) | > 100 µM (inactive) | > 100 µM (inactive) | > 100 µM (inactive) | > 100 µM (inactive) | > 100 µM (inactive) | > 100 µM (inactive) | > 100 µM (inactive) | > 100 µM (inactive) | > 100 µM (inactive) | > 100 µM (inactive) |  | > 100 µM (inactive) | 51.1 µM (inactive) |  | > 100 µM (inactive) | > 100 µM (inactive) | > 100 µM (inactive) | 
CCC(=O)Nc1ccc(NS(=O)(=O)c2ccc(Cl)cc2)cc1 | > 100 µM (inactive) | > 100 µM (inactive) | > 100 µM (inactive) | > 100 µM (inactive) | > 100 µM (inactive) | > 100 µM (inactive) |  | > 100 µM (inactive) | 87.7 µM (inactive) | 34.5 µM (inactive) | > 100 µM (inactive) | > 100 µM (inactive) | 17.7 µM (inactive) | 47.6 µM (inactive) | > 100 µM (inactive) | > 100 µM (inactive) | > 100 µM (inactive) | > 100 µM (inactive) | > 100 µM (inactive) | > 100 µM (inactive)
CCOC(=O)CNC(SC)=C(C#N)C#N | > 100 µM (inactive) | > 100 µM (inactive) | > 100 µM (inactive) | > 100 µM (inactive) | > 100 µM (inactive) |  |  | > 100 µM (inactive) | > 100 µM (inactive) | > 100 µM (inactive) | > 100 µM (inactive) | > 100 µM (inactive) | > 100 µM (inactive) | > 100 µM (inactive) | 36.7 µM (inactive) |  |  | > 100 µM (inactive) | > 100 µM (inactive) | > 100 µM (inactive)
O=c1[nH]c(=O)n(C2CC(O)C(CO)O2)cc1C(OCC(F)(F)F)OCC(F)(F)F (stereo not drawn) | > 100 µM (inactive) | > 100 µM (inactive) | > 100 µM (inactive) | > 100 µM (inactive) | > 100 µM (inactive) |  |  | > 100 µM (inactive) | > 100 µM (inactive) | > 100 µM (inactive) | > 100 µM (inactive) | > 100 µM (inactive) | > 100 µM (inactive) | > 100 µM (inactive) | > 100 µM (inactive) |  |  | > 100 µM (inactive) | > 100 µM (inactive) | > 100 µM (inactive)
Cc1ncc([N+](=O)[O-])n1CCNC(=O)CCCn1ccnc1[N+](=O)[O-] | > 100 µM (inactive) | > 100 µM (inactive) | > 100 µM (inactive) | > 100 µM (inactive) | > 100 µM (inactive) |  | > 100 µM (inactive) | > 100 µM (inactive) | > 100 µM (inactive) | > 100 µM (inactive) | > 100 µM (inactive) | > 100 µM (inactive) | > 100 µM (inactive) | > 100 µM (inactive) | > 100 µM (inactive) | > 100 µM (inactive) | > 100 µM (inactive) | > 100 µM (inactive) | > 100 µM (inactive) | > 100 µM (inactive)
Cc1c(CC/C(=N\Nc2ccc([N+](=O)[O-])cc2[N+](=O)[O-])c2ccccc2)c2ccccc2n1C | > 100 µM (inactive) | > 100 µM (inactive) | > 100 µM (inactive) | > 100 µM (inactive) | > 100 µM (inactive) |  |  | > 100 µM (inactive) | > 100 µM (inactive) | > 43.2 µM (inactive) | > 100 µM (inactive) | > 100 µM (inactive) | 20.7 µM (inactive) | > 100 µM (inactive) | > 86.9 µM (inactive) |  |  | > 100 µM (inactive) | > 100 µM (inactive) | > 100 µM (inactive)
O=C(NCCN1CCCCC1)c1cccc(I)c1 |  | > 100 µM (inactive) | > 100 µM (inactive) | > 100 µM (inactive) | > 100 µM (inactive) | > 100 µM (inactive) |  | > 100 µM (inactive) |  | > 100 µM (inactive) | > 100 µM (inactive) | > 100 µM (inactive) | > 100 µM (inactive) | > 100 µM (inactive) | > 100 µM (inactive) |  |  | > 100 µM (inactive) |  | > 100 µM (inactive)
N#CCc1n[nH]c2nc(SCc3ccccc3)nc(N3CCCCC3)c12 | 20.4 µM (inactive) | 17.7 µM (inactive) | 21.4 µM (inactive) | 17.5 µM (inactive) |  | 17.6 µM (inactive) |  | 19.2 µM (inactive) | 20.8 µM (inactive) | 20.6 µM (inactive) | 19.5 µM (inactive) | 17.3 µM (inactive) | 27.1 µM (inactive) | 18.5 µM (inactive) | 20.1 µM (inactive) | 19.9 µM (inactive) | 18.2 µM (inactive) | 21 µM (inactive) | 24.5 µM (inactive) | 30.5 µM (inactive)
CC(=O)Nc1ccc(C2[C@H]3C(=O)N(c4ccc(Cc5ccc(N6C(=O)[C@@H]7ON(c8ccccc8)C(c8ccc(NC(C)=O)cc8)[C@@H]7C6=O)cc5)cc4)C(=O)[C@H]3ON2c2ccccc2)cc1 (stereo partly drawn) | > 100 µM (inactive) | > 100 µM (inactive) | > 100 µM (inactive) | > 100 µM (inactive) | > 100 µM (inactive) |  |  | > 100 µM (inactive) | > 100 µM (inactive) | > 100 µM (inactive) | > 100 µM (inactive) | > 100 µM (inactive) | > 100 µM (inactive) | 32.6 µM (inactive) | > 100 µM (inactive) |  |  | > 100 µM (inactive) | > 100 µM (inactive) | > 100 µM (inactive)
